Key:
Format in all cases: cell-based, human
[1] = system: adipose mesenchymal stem cells; test: Viability and cell count after 5 days of incubation following suspension in saline containing aspirin lysine; settings: varying concentrations in physiological saline
Procedure: (§1) The adipose mesenchymal stem cells isolated in Example 1 were treated with trypsin, and then suspended at a concentration of 1.0×10^7 cells in physiological saline containing varying concentrations of aspirin lysine (Shin Poong Pharm. Co., Ltd, Korea). Then, the cells were incubated for 5 days, and the cell count of the cells was measured. In addition, the cells were cold-stored for 24 hours, and then the characteristics of the cells were analyzed by FACS.

[2] = system: adipose mesenchymal stem cells; test: FACS analysis of surface marker expression after suspension in saline containing aspirin lysine and cold storage
Procedure: as §1

[3] = system: adipose mesenchymal stem cells; test: Viability of stem cells suspended in physiological saline containing acetylsalicylic acid
Procedure: The adipose mesenchymal stem cells isolated in Example 1 were treated with trypsin, and then suspended at a concentration of 1.0×10^7 cells in physiological saline containing varying concentrations of acetylsalicylic acid (Sigma; A5376), after which the viability of the cells at 12 hours and 24 hours after the suspension was observed. The physiological saline containing acetylsalicylic acid was prepared by adding acetylsalicylic acid to physiological saline at varying concentrations and sonicating it at 37° C. for 30 minutes.

[4] = 0.1 mg/10 ml, cold-stored for 24 hours, FACS

Structure (SMILES) | cell viability depending on concentration [1] | count of the cells after 5 days of incubation [1] | Expression rate CD29 [2, 4] [%] | Expression rate CD31 [2, 4] [%] | Expression rate CD44 [2, 4] [%] | Expression rate CD45 [2, 4] [%] | Expression rate CD90 [2, 4] [%] | Expression rate CD105 [2, 4] [%] | characteristics of the adipose mesenchymal stem cells (FACS) ([2]; suspended 24 hours in aspirin-containing saline, then cold-stored 24 hours) | cytotoxicity ([3]; 1.0 mg or more added to 10 ml of physiological saline) | Viability ([3]; 1.0 mg/10 ml in physiological saline, 12 hours after suspension) [%] | Viability ([3]; 1.0 mg/10 ml in physiological saline, 24 hours after suspension) [%] | Viability ([3]; 2.0 mg/10 ml in physiological saline, 12 hours after suspension) [%] | Viability ([3]; 2.0 mg/10 ml in physiological saline, 24 hours after suspension) [%] | Viability ([3]; 5.0 mg/10 ml in physiological saline, 12 hours after suspension) [%] | Viability ([3]; 5.0 mg/10 ml in physiological saline, 24 hours after suspension) [%]
CC(=O)Oc1ccccc1C(=O)O [aspirin lysine] | somewhat decreased depending on the concentration of aspirin lysine, but this decrease was not significant | did not almost differ between the concentrations of aspirin lysine | 99.97 | 0.21 | 99.25 | 0.17 | 99.66 | 99.89 | not dependent on the concentration of aspirin lysine | – | – | – | – | – | – | –
CC(=O)Oc1ccccc1C(=O)O [acetylsalicylic acid] | – | – | – | – | – | – | – | – | – | cytotoxic | 50 | 10 | 20 | 10 | 10 | 5

Source: patent US20160081917A1, “STEM CELL COMPOSITION FOR VENOUS ADMINISTRATION” (K-STEMCELL CO., LTD, priority 2013, published 2016)
